Data reported in US9233989B2, “Sila analogs of oxazolidinone derivatives and synthesis thereof” (Council of Scientific & Industrial Research, priority 2011, dated 2016).
≈ marks a conversion by molar mass, not a printed value.

Tests used:
[1] = test system: S.aureus ATCC 13709 Smith; test: MIC by microbroth dilution method; format: cell-based
S.aureus ATCC 29213 = test: MIC by microbroth dilution method; format: cell-based
MRSA ATCC 43300 = test: MIC by microbroth dilution method; format: cell-based, S. aureus
MRSA 562 = test: MIC by microbroth dilution method; format: cell-based, S. aureus
S.aureus2 (PVL + ve) = format: cell-based, S. aureus
[2] = test system: S.aureus ATCC Newman 25904; test: MIC by microbroth dilution method; format: cell-based
MRSA ATCC BAA 39 = test: MIC by microbroth dilution method; format: cell-based, S. aureus
S.aureus DB00026 = test: MIC by microbroth dilution method; format: cell-based
MRSA 252 BAA 1720 = test: MIC by microbroth dilution method; format: cell-based, S. aureus
S.epidermidis ATCC 14990 = test: MIC by microbroth dilution method; format: cell-based
MRSE ATCC 35984 = test: MIC by microbroth dilution method; format: cell-based, S. epidermidis
E.faecalis ATCC 29212 = test: MIC by microbroth dilution method; format: cell-based
[3] = test system: E.faecalis ATCC 51299(VRE&HLAR); test: MIC by microbroth dilution method; format: cell-based
E.faecalis ATCC 19433 = test: MIC by microbroth dilution method; format: cell-based
E.faecium ATCC 19434 = test: MIC by microbroth dilution method; format: cell-based
E.faecium ATCC 49224 = test: MIC by microbroth dilution method; format: cell-based
E.faecium ATCC 35667 = test: MIC by microbroth dilution method; format: cell-based
E.coli 7632 = test: MIC by microbroth dilution method; format: cell-based
[4] = test system: S.aureus ATCC 49775 PVL + ve; format: cell-based
[5] = test system: S.aureus ATCC 700699 Mu50; test: MIC by microbroth dilution method; format: cell-based
MRSA 0-2657 = test: MIC by microbroth dilution method; format: cell-based, S. aureus
MRSA DB 00026 = test: MIC by microbroth dilution method; format: cell-based, S. aureus
[6] = test system: S.aureus 13709 LNZ mutant; format: cell-based
S.epidermidis ATCC 12228 = test: MIC by microbroth dilution method; format: cell-based
MRSE ATCC 35983 = test: MIC by microbroth dilution method; format: cell-based, S. epidermidis
S.epidermis St 358 = test: MIC by microbroth dilution method; format: cell-based, S. epidermidis
E.faecalis SP 346 VRE = test: MIC by microbroth dilution method; format: cell-based
E.faecium 6A VRE = test: MIC by microbroth dilution method; format: cell-based
E.faecium 134 VRE = test: MIC by microbroth dilution method; format: cell-based
E.faecium 06076 VRE = test: MIC by microbroth dilution method; format: cell-based
E.faecium ATCC 3567 = test: MIC by microbroth dilution method; format: cell-based
[7] = test system: Mycobacterium tuberculosis H37Rv; test: Anti-TB activity, colorimetric resazurin microtiter assay; format: cell-based; details: for MIC: Mycobacterium tuberculosis, H37RV, read-out: MIC, Minimum Inhibitory Concentration (90%)

SMILES | MIC [1] [µg/mL] | MIC (S.aureus ATCC 29213) [µg/mL] | MIC (MRSA ATCC 43300) [µg/mL] | MIC (MRSA 562) [µg/mL] | MIC (S.aureus2 (PVL + ve)) [µg/mL] | MIC [2] [µg/mL] | MIC (MRSA ATCC BAA 39) [µg/mL] | MIC (S.aureus DB00026) [µg/mL] | MIC (MRSA 252 BAA 1720) [µg/mL] | MIC (S.epidermidis ATCC 14990) [µg/mL] | MIC (MRSE ATCC 35984) [µg/mL] | MIC (E.faecalis ATCC 29212) [µg/mL] | MIC [3] [µg/mL] | MIC (E.faecalis ATCC 19433) [µg/mL] | MIC (E.faecium ATCC 19434) [µg/mL] | MIC (E.faecium ATCC 49224) [µg/mL] | MIC (E.faecium ATCC 35667) [µg/mL] | MIC (E.coli 7632) [µg/mL] | MIC [4] [µg/mL] | MIC [5] [µg/mL] | further results
C[Si]1(C)CCN(c2c(F)cc(N3C[C@H](Cn4ccnn4)OC3=O)cc2F)CC1 [NDS-10058, (R)-5-((1H-1,2,3-triazol-1-yl)methyl)-3-(4-(4,4-dimethyl-1,4-azasilinan-1-yl)-3,5-difluorophenyl)oxazolidin-2-one] | > 32 | > 32 | > 32 | > 32 | 32 (≈ 78.5 µM) | 32 (≈ 78.5 µM) | > 32 | > 32 | > 32 | > 32 | 32 (≈ 78.5 µM) | 32 (≈ 78.5 µM) | 32 (≈ 78.5 µM) | 32 (≈ 78.5 µM) | 32 (≈ 78.5 µM) | > 32 | > 32 | 16 (≈ 39.3 µM) | 32 (≈ 78.5 µM) | > 32 | MIC (MRSA 0-2657): > 32 µg/mL; MIC (MRSA DB 00026): > 32 µg/mL; MIC [6]: 32 µg/mL (≈ 78.5 µM); MIC (S.epidermidis ATCC 12228): > 32 µg/mL; MIC (MRSE ATCC 35983): 16 µg/mL (≈ 39.3 µM); MIC (S.epidermis St 358): 32 µg/mL (≈ 78.5 µM); MIC (E.faecalis SP 346 VRE): 32 µg/mL (≈ 78.5 µM); MIC (E.faecium 6A VRE): 16 µg/mL (≈ 39.3 µM); MIC (E.faecium 134 VRE): 4 µg/mL (≈ 9.82 µM); MIC (E.faecium 06076 VRE): 32 µg/mL (≈ 78.5 µM); MIC (E.faecium ATCC 3567): > 32 µg/mL; anti-tubercular activity (in words) ([7]; Mycobacterium tuberculosis H37Rv): good anti-tubercular activity; MIC [7]: 12.5 µg/mL (≈ 30.7 µM)
C[Si]1(C)CCN(c2ccc(N3C[C@H](CO)OC3=O)cc2F)CC1 [NDS-10059, (R)-3-(4-(4,4-dimethyl-1,4-azasilinan-1-yl)-3-fluorophenyl)-5-(hydroxymethyl)oxazolidin-2-one] | > 32 | > 32 | > 32 | > 32 | > 32 | > 32 | > 32 | > 32 | > 32 | 32 (≈ 94.5 µM) | 32 (≈ 94.5 µM) | 32 (≈ 94.5 µM) | 32 (≈ 94.5 µM) | > 32 | 32 (≈ 94.5 µM) | > 32 | > 32 | 32 (≈ 94.5 µM) | 32 (≈ 94.5 µM) | > 32 | MIC (MRSA 0-2657): 32 µg/mL (≈ 94.5 µM); MIC (MRSA DB 00026): > 32 µg/mL; MIC [6]: > 32 µg/mL; MIC (S.epidermidis ATCC 12228): > 32 µg/mL; MIC (MRSE ATCC 35983): > 32 µg/mL; MIC (S.epidermis St 358): 32 µg/mL (≈ 94.5 µM); MIC (E.faecalis SP 346 VRE): 32 µg/mL (≈ 94.5 µM); MIC (E.faecium 6A VRE): > 32 µg/mL; MIC (E.faecium 134 VRE): 32 µg/mL (≈ 94.5 µM); MIC (E.faecium 06076 VRE): > 32 µg/mL; MIC (E.faecium ATCC 3567): > 32 µg/mL; MIC [7]: 100 µg/mL (≈ 295 µM)
C[Si]1(C)CCN(c2ccc(N3C[C@H](Cn4ccnn4)OC3=O)cc2F)CC1 [NDS-10060, (R)-5-((1H-1,2,3-triazol-1-yl)methyl)-3-(4-(4,4-dimethyl-1,4-azasilinan-1-yl)-3-fluorophenyl)oxazolidin-2-one] | 16 (≈ 41.1 µM) | 32 (≈ 82.2 µM) | 32 (≈ 82.2 µM) | 16 (≈ 41.1 µM) | 16 (≈ 41.1 µM) | 16 (≈ 41.1 µM) | 16 (≈ 41.1 µM) | 16 (≈ 41.1 µM) | 32 (≈ 82.2 µM) | 8 (≈ 20.5 µM) | 16 (≈ 41.1 µM) | 8 (≈ 20.5 µM) | 16 (≈ 41.1 µM) | 16 (≈ 41.1 µM) | 32 (≈ 82.2 µM) | 32 (≈ 82.2 µM) | 32 (≈ 82.2 µM) | 16 (≈ 41.1 µM) | 16 (≈ 41.1 µM) | 32 (≈ 82.2 µM) | MIC (MRSA 0-2657): 16 µg/mL (≈ 41.1 µM); MIC (MRSA DB 00026): 16 µg/mL (≈ 41.1 µM); MIC [6]: 32 µg/mL (≈ 82.2 µM); MIC (S.epidermidis ATCC 12228): > 32 µg/mL; MIC (MRSE ATCC 35983): 32 µg/mL (≈ 82.2 µM); MIC (S.epidermis St 358): 16 µg/mL (≈ 41.1 µM); MIC (E.faecalis SP 346 VRE): 16 µg/mL (≈ 41.1 µM); MIC (E.faecium 6A VRE): 32 µg/mL (≈ 82.2 µM); MIC (E.faecium 134 VRE): 16 µg/mL (≈ 41.1 µM); MIC (E.faecium 06076 VRE): 32 µg/mL (≈ 82.2 µM); MIC (E.faecium ATCC 3567): > 32 µg/mL; MIC [7]: 50 µg/mL (≈ 128 µM)
COC(=O)NC[C@H]1CN(c2ccc(N3CC[Si](C)(C)CC3)c(F)c2)C(=O)O1 [NDS-10061, (S)-methyl((3-(4-(4,4-dimethyl-1,4-azasilinan-1-yl)-3-fluorophenyl)-2-oxooxazolidin-5-yl)methyl)carbamate] | 8 (≈ 20.2 µM) | 16 (≈ 40.5 µM) | > 32 | 16 (≈ 40.5 µM) | 16 (≈ 40.5 µM) | 16 (≈ 40.5 µM) | 16 (≈ 40.5 µM) | 8 (≈ 20.2 µM) | 16 (≈ 40.5 µM) | 8 (≈ 20.2 µM) | 8 (≈ 20.2 µM) | 8 (≈ 20.2 µM) | 32 (≈ 80.9 µM) | 16 (≈ 40.5 µM) | 32 (≈ 80.9 µM) | 16 (≈ 40.5 µM) | 16 (≈ 40.5 µM) | 8 (≈ 20.2 µM) | 16 (≈ 40.5 µM) | 32 (≈ 80.9 µM) | MIC (MRSA 0-2657): 16 µg/mL (≈ 40.5 µM); MIC (MRSA DB 00026): 16 µg/mL (≈ 40.5 µM); MIC [6]: 32 µg/mL (≈ 80.9 µM); MIC (S.epidermidis ATCC 12228): > 32 µg/mL; MIC (MRSE ATCC 35983): 16 µg/mL (≈ 40.5 µM); MIC (S.epidermis St 358): 32 µg/mL (≈ 80.9 µM); MIC (E.faecalis SP 346 VRE): 16 µg/mL (≈ 40.5 µM); MIC (E.faecium 6A VRE): 32 µg/mL (≈ 80.9 µM); MIC (E.faecium 134 VRE): 16 µg/mL (≈ 40.5 µM); MIC (E.faecium 06076 VRE): 32 µg/mL (≈ 80.9 µM); MIC (E.faecium ATCC 3567): 32 µg/mL (≈ 80.9 µM); MIC [7]: 25 µg/mL (≈ 63.2 µM)
